In patent publication US8802597B2, “Herbicidal pyrimidines” (E I du Pont de Nemours and Company, priority 2003, dated 2014):

How the values were obtained:
Format in all cases: in vivo
[1] = tested on: umbrella sedge (Cyperus difformis); experiment: Test B flooded paddy test; details: Flood, 1000 g ai/ha; scale 0 to 100
Outline: (§1)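 Rice, umbrella sedge, duck salad and barnyardgrass grown to 2-leaf stage under flooded paddy conditions and treated with formulated test chemicals. Kept in greenhouse 13–15 days, then visually rated against untreated controls on a 0–100 scale (0 no effect, 100 complete control).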

rice (Oryza sativa) = experiment: Test B flooded paddy test; details: Flood, 1000 g ai/ha; scale 0 to 100
Outline: as §1

[2] = tested on: duck salad (Heteranthera limosa); experiment: Test B flooded paddy test; details: Flood, 1000 g ai/ha; scale 0 to 100
Outline: as §1

[3] = tested on: barnyardgrass (Echinochloa crus-galli); experiment: Test B flooded paddy test; details: Flood, 1000 g ai/ha; scale 0 (no effect) to 100 (complete control)
Outline: as §1

[4] = tested on: blackgrass (Alopecurus myosuroides); experiment: Test B postemergence; details: for Blackgrass plant response rating: 125 g ai/ha, scale 0 to 100 (0 no effect, 100 complete control); for Plant response rating, Blackgrass: 500 g ai/ha, scale 0 to 100
Outline: (§2)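 Compounds in non-phytotoxic solvent with surfactant applied preemergence to planted seeds or postemergence to plants 2 to 18 cm tall (1- to 4-leaf stage). Greenhouse 13 to 15 days, then visual rating against controls on a 0 to 100 scale (100 = complete control).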

wild oat (Avena fatua) = experiment: Test B postemergence; details: for Oat, Wild plant response rating: 125 g ai/ha, scale 0 to 100 (0 no effect, 100 complete control); for Plant response rating, Oat, Wild: 500 g ai/ha, scale 0 to 100
Outline: as §2

[5] = tested on: crabgrass (Digitaria sanguinalis); experiment: Test B pre/postemergence
From the text: (§3) Seeds selected from barnyardgrass (Echinochloa crus-galli), Surinam grass (Brachiaria decumbens), cocklebur (Xanthium strumarium), corn (Zea mays), crabgrass (Digitaria sanguinalis), giant foxtail (Setaria faberii), lambsquarters (Chenopodium album), morningglory (Ipomoea coccinea), pigweed (Amaranthus retroflexus), velvetleaf (Abutilon theophrasti), and wheat (Triticum aestivum) were planted and treated preemergence with test chemicals formulated in a non-phytotoxic solvent mixture which included a surfactant.
(§4) At the same time, plants selected from these crop and weed species and also blackgrass (Alopecurus myosuroides) and wild oat (Avena fatua) were treated with postemergence applications of test chemicals formulated in the same manner. Plants ranged in height from 2 to 18 cm (1- to 4-leaf stage) for postemergence treatments. Plant species in the flooded paddy test consisted of rice (Oryza sativa), umbrella sedge (Cyperus difformis), duck salad (Heteranthera limosa) and barnyardgrass (Echinochloa crus-galli) grown to the 2-leaf stage for testing. Treated plants and controls were maintained in a greenhouse for 13 to 15 days, after which time all species were compared to controls and visually evaluated. Plant response ratings, summarized in Table B, are based on a scale of 0 to 100 where 0 is no effect and 100 is complete control. A dash (-) response means no test result.

[6] = tested on: velvetleaf (Abutilon theophrasti); experiment: Test B pre/postemergence
From the text: as §3, §4

[7] = tested on: lambsquarters (Chenopodium album); experiment: Test B pre/postemergence
From the text: as §3, §4

[8] = tested on: Surinam grass (Brachiaria decumbens); experiment: Test B pre/postemergence
From the text: as §3, §4

corn (Zea mays) = experiment: Test B pre/postemergence
From the text: as §3, §4

[9] = tested on: cocklebur (Xanthium strumarium); experiment: Test B pre/postemergence
From the text: as §3, §4

[10] = tested on: giant foxtail (Setaria faberii); experiment: Test B pre/postemergence
From the text: as §3, §4

[11] = tested on: pigweed (Amaranthus retroflexus); experiment: Test B pre/postemergence
From the text: as §3, §4

[12] = tested on: morningglory (Ipomoea coccinea); experiment: Test B pre/postemergence
From the text: as §3, §4

[13] = tested on: barnyardgrass (Echinochloa crus-galli); experiment: Test B pre/postemergence
From the text: as §3, §4

[14] = tested on: wheat (Triticum aestivum); experiment: Test B pre/postemergence
From the text: as §3, §4

[15] = Postemergence, 125 g ai/ha, scale 0 to 100 (0 no effect, 100 complete control)
[16] = Postemergence, 500 g ai/ha, scale 0 to 100
[17] = Preemergence, 125 g ai/ha, scale 0 to 100 (0 no effect, 100 complete control)
[18] = Preemergence, 500 g ai/ha, scale 0 to 100 (0 no effect, 100 complete control)

CON=Cc1nc(C2CC2)nc(N)c1Br [Compound 48]
Plant response rating, Sedge, Umbrella [1]: 0 | Plant response rating, Rice (rice (Oryza sativa)): 0 | Plant response rating, Ducksalad [2]: 20 | Plant response rating, Barnyardgrass [3]: 20 | Blackgrass plant response rating [4]: 0 | Plant response rating, Blackgrass [4]: 20 | Oat, Wild plant response rating (wild oat (Avena fatua)): 0 | Plant response rating, Oat, Wild (wild oat (Avena fatua)): 20 | Crabgrass plant response rating [5, 15]: 10 | Plant response rating, Crabgrass [5, 16]: 20 | Plant response rating, Crabgrass [5, 17]: 10 | Velvetleaf plant response rating [6, 15]: 10 | Plant response rating, Velvetleaf [6, 16]: 60 | Plant response rating, Velvetleaf [6, 17]: 0 | Velvetleaf plant response rating [6, 18]: 0 | Lambsquarters plant response rating [7, 15]: 60 | Plant response rating, Lambsquarters [7, 16]: 80 | Plant response rating, Lambsquarters [7, 17]: 70 | Lambsquarters plant response rating [7, 18]: 100 | Surinam Grass plant response rating [8, 15]: 0 | Plant response rating, Surinam Grass [8, 16]: 10 | Plant response rating, Surinam Grass [8, 17]: 30 | Surinam Grass plant response rating [8, 18]: 60 | Corn plant response rating (corn (Zea mays); [15]): 0 | Plant response rating, Corn (corn (Zea mays); [16]): 0 | Plant response rating, Corn (corn (Zea mays); [17]): 0 | Corn plant response rating (corn (Zea mays); [18]): 0 | Cocklebur plant response rating [9, 15]: 20 | Plant response rating, Cocklebur [9, 16]: 80 | Plant response rating, Cocklebur [9, 17]: 0 | Cocklebur plant response rating [9, 18]: 20 | Foxtail, Giant plant response rating [10, 15]: 10 | Plant response rating, Foxtail, Giant [10, 16]: 10 | Plant response rating, Foxtail, Giant [10, 17]: 30 | Foxtail, Giant plant response rating [10, 18]: 50 | Pigweed plant response rating [11, 15]: 60 | Plant response rating, Pigweed [11, 16]: 80 | Plant response rating, Pigweed [11, 17]: 60 | Pigweed plant response rating [11, 18]: 80 | Morningglory plant response rating [12, 15]: 30 | Plant response rating, Morningglory [12, 16]: 80 | Plant response rating, Morningglory [12, 17]: 0 | Morningglory plant response rating [12, 18]: 30 | Barnyardgrass plant response rating [13, 15]: 10 | Plant response rating, Barnyardgrass [13, 16]: 20 | Plant response rating, Barnyardgrass [13, 17]: 0 | Barnyardgrass plant response rating [13, 18]: 10 | Wheat plant response rating [14, 15]: 0 | Plant response rating, Wheat [14, 16]: 20 | Plant response rating, Wheat [14, 17]: 0 | Plant response rating, Wheat [14, 18]: 30

CCOC(=O)C(C)c1nc(C2CC2)nc(N)c1Br (stereo not shown) [Compound 32]
Plant response rating, Sedge, Umbrella [1]: 0 | Plant response rating, Rice (rice (Oryza sativa)): 0 | Plant response rating, Ducksalad [2]: 0 | Plant response rating, Barnyardgrass [3]: 0 | Blackgrass plant response rating [4]: 30 | Plant response rating, Blackgrass [4]: 40 | Oat, Wild plant response rating (wild oat (Avena fatua)): 20 | Plant response rating, Oat, Wild (wild oat (Avena fatua)): 30 | Crabgrass plant response rating [5, 15]: 10 | Plant response rating, Crabgrass [5, 16]: 20 | Plant response rating, Crabgrass [5, 17]: 0 | Crabgrass plant response rating [5, 18]: 40 | Velvetleaf plant response rating [6, 15]: 10 | Plant response rating, Velvetleaf [6, 16]: 50 | Plant response rating, Velvetleaf [6, 17]: 50 | Velvetleaf plant response rating [6, 18]: 80 | Lambsquarters plant response rating [7, 15]: 70 | Plant response rating, Lambsquarters [7, 16]: 80 | Plant response rating, Lambsquarters [7, 17]: 40 | Lambsquarters plant response rating [7, 18]: 90 | Surinam Grass plant response rating [8, 15]: 0 | Plant response rating, Surinam Grass [8, 16]: 10 | Plant response rating, Surinam Grass [8, 17]: 0 | Surinam Grass plant response rating [8, 18]: 0 | Corn plant response rating (corn (Zea mays); [15]): 0 | Plant response rating, Corn (corn (Zea mays); [16]): 10 | Plant response rating, Corn (corn (Zea mays); [17]): 0 | Corn plant response rating (corn (Zea mays); [18]): 0 | Cocklebur plant response rating [9, 15]: 40 | Plant response rating, Cocklebur [9, 16]: 90 | Plant response rating, Cocklebur [9, 17]: 80 | Cocklebur plant response rating [9, 18]: 90 | Foxtail, Giant plant response rating [10, 15]: 10 | Plant response rating, Foxtail, Giant [10, 16]: 20 | Plant response rating, Foxtail, Giant [10, 17]: 0 | Foxtail, Giant plant response rating [10, 18]: 0 | Pigweed plant response rating [11, 15]: 80 | Plant response rating, Pigweed [11, 16]: 80 | Plant response rating, Pigweed [11, 17]: 40 | Pigweed plant response rating [11, 18]: 90 | Morningglory plant response rating [12, 15]: 40 | Plant response rating, Morningglory [12, 16]: 90 | Plant response rating, Morningglory [12, 17]: 40 | Morningglory plant response rating [12, 18]: 80 | Barnyardgrass plant response rating [13, 15]: 20 | Plant response rating, Barnyardgrass [13, 16]: 70 | Plant response rating, Barnyardgrass [13, 17]: 0 | Barnyardgrass plant response rating [13, 18]: 10 | Wheat plant response rating [14, 15]: 20 | Plant response rating, Wheat [14, 16]: 30 | Plant response rating, Wheat [14, 17]: 0 | Wheat plant response rating [14, 18]: 10
